Assay results from EP1270558B1, “"Compound for the treatment of atherosclerotic-thrombotic pathological conditions"” (Casagrande, Cesare, priority 2001, dated 2003).
Where two headings read alike, the source gives them in different places.

Columns and labels:
[1] = system: platelet-rich plasma (PRP); experiment: Platelet aggregation in platelet-rich plasma (aggregometer, light transmittance); type: cell-based; settings: for IC50: Homo sapiens, Platelet, 10 min, 10 min incubation
Experimental: Platelet aggregation experiments were performed on platelet-rich plasma (PRP) prepared from blood of healthy human subjects, who had not taken cyclooxygenase inhibitors (acetylsalicylic acid, non-steroidal antiinflammatory agents) for at least two weeks. Blood was collected in test tubes containing a 3.2 % sodium citrate solution (1/10 of blood volume) and immediately centrifuged at 150 x g for 15 minutes. Samples of PRP were further centrifuged at 12,000 x g in order to obtain platelet-poor plasma (PPP), used for calibration of light transmittance of the double-channel aggregometer, fixing the transmittance of PRP as 10 % and that of PPP as 90 %. Platelet aggregation in PRP of each subject was tested measuring the percent increase in transmittance under the addition of increasing amounts of sodium arachidonate, in concentrations in the range from 300 to 900 µM, or of collagen, in concentrations in the range from 0.5 to 2.5 µg/ml, or of U-46619, in concentrations in the range from 0.2 to 1.6 µM. […] In this way the threshold concentration, i.e., the concentration inducing a submaximal irreversible aggregation was assessed in each subject with the three agents.
PRP samples of subjects not responding to the maximal concentrations were discarded.

thromboxane synthesis = experiment: Thromboxane synthesis in clotting blood (serum TxB2 by radioimmunoassay); type: cell-based; settings: human blood clotted 60 min at 37°C
Experimental: Test compounds were added in a series of concentrations ranging from 10^-7 M to 10^-3 M to samples of blood from healthy human subjects, who had not taken cyclooxygenase inhibitors (acetylsalicylic acid, non-steroidal antiinflammatory agents) for at least two weeks. The blood samples were allowed to clot for 60 min in a bath at 37°C, and then centrifuged at 2500 x g for 10 min. The serum was separated and kept frozen at -20°C for the determination of TxB2 by radioimmunoassay. TxB2 is the stable metabolite into which thromboxane A2 is rapidly converted.

[2] = system: transcellular synthesis of prostacyclin; experiment: Transcellular prostacyclin synthesis: PRP layered on acetylsalicylic acid-pretreated endothelial cells (6-keto-prostaglandin F1α by radioimmunoassay); type: cell-based, bovine
Experimental: The effects on the transcellular synthesis of prostacyclin from endoperoxides generated in platelets were assessed by layering platelet rich plasma (PRP), obtained from healthy human subjects as described above, on cultured bovine endothelial cells (5 x 10^5 cells/well). The endothelial cells were pretreated with acetylsalicylic acid (10^-4 M) in order to inhibit the direct synthesis of endoperoxides, and washed twice with Dulbecco's phosphate buffered saline. Then to individual samples of endothelial cells there were added at 37°C while shaking on an oscillating platform, 0.5 ml of PRP samples pretreated with the test compounds in various concentrations, ranging from 10^-7 M to 10 ^-3 M. Collagen (0.5 µg/ml) was then added to each sample. After 2 minutes of contact at 37°C, PRP was removed and centrifuged at 12,000 x g, and the supernatant was frozen and kept at -20°C for the determination of 6-keto-prostaglandin F1α by radioimmunoassay.
6-Keto-prostaglandin F1α is a stable metabolite into which prostacyclin is rapidly converted.

rabbit aortae = experiment: Vascular relaxation of precontracted aortic rings in vitro; type: cell-based; settings: for EC50: Oryctolagus cuniculus, read-out: calculated EC50
Experimental: The ability to induce vascular relaxation by acting as a donor of nitric oxide was tested in vitro on rabbit aortae. Rings of aortae were suspended in a Krebs-Henseleit solution at 37°C, submitted to a 1 g tension and connected to a force transducer.

[3] = human PRP on acetylsalicylic acid-treated bovine endothelial cells, collagen 0.5 µg/ml
[4] = rabbit aortic rings contracted with norepinephrine (10^-6 M)

Compound	IC50 ([1]; aggregation induced by U-46619 (threshold concentration)) [µM]	IC50 ([1]; aggregation induced by arachidonic acid (threshold concentration)) [µM]	IC50 ([1]; aggregation induced by collagen (threshold concentration)) [µM]	IC50 (thromboxane synthesis; 1 h, read-out: IC50 (inhibit thromboxane synthesis)) [µM]	concentration from which production of the prostacyclin metabolite was increased [2, 3]	production of the prostacyclin metabolite (effect in words) [2, 3]	production of the prostacyclin metabolite (6-keto-prostaglandin F1α), level reached ([2]; human PRP on acetylsalicylic acid-treated bovine endothelial cells, collagen 0.5 µg/ml, up to) [pg/mL]	level times higher of the amount produced in basal conditions by endothelial cells not submitted to cyclooxygenase inhibition ([2]; relative to basal production of untreated endothelial cells)	EC50 (rabbit aortae; norepinephrine-contracted rabbit aortic rings, methylene blue 10^-5 M in the bath) [µM]	EC50 (rabbit aortae; [4]) [µM]	relaxation in aortic rings (rabbit aortae; aortic rings contracted with 5-hydroxytryptamine)	relaxation in aortic rings (rabbit aortae; aortic rings contracted with U-46619)	concentration inducing a complete relaxation of the aortic ring (rabbit aortae; [4])	inhibitory activity in the aggregation induced by collagen ([1]; human PRP, up to 10^-3 M concentrations)	effect on thromboxane synthesis (thromboxane synthesis)
COc1ccc(C(=O)N[C@H]2CC[C@H](O[N+](=O)[O-])CC2)cc1C(=O)NCc1cccnc1 [4-methoxy-N^1-(4-trans-nitrooxycyclohexyl)-N^3-(3-pyridinylmethyl)-1,3-benzenedicarboxamide]	33	12	22	18	10^-6 M	markedly increased	800 to 1600	8-16 times	55	3.2	similarly able to produce relaxation	similarly able to produce relaxation	10^-4 M	–	–
O=C(O)/C=C/c1ccc(Cn2ccnc2)cc1 [ozagrel, (E)-3-[4-(1H-imidazol-1-ylmethyl)-phenyl]-2-propenoic acid, reference compound]	–	–	–	–	–	–	–	–	–	–	–	–	–	did not show any significant inhibitory activity	–
O=C(O)Cc1ccc(CCNS(=O)(=O)c2ccc(Cl)cc2)cc1 [daltroban, p-[2-(p-chlorobenzenesulfonamido)ethyl]phenylacetic, reference compound]	–	–	–	–	–	did not stimulate the synthesis of prostacyclin	–	–	–	–	–	–	–	–	did not show any effect
